Experimental data as given in US6723567B1, “Screening method for apoptosis and necrosis” (Aponetics Ltd., priority 1998, dated 2004).
“Also recorded” adds a separate entry of the source. Numbered stars: 1 amine (or outer) side, 2 acyl side, 3 side chain; on linkers, the order of the positions; unused ones are H or OH. Bridge positions count the residues as written; N and C are the ends. Square brackets hold non-standard residues; d marks the D form. Peptide text beside a SMILES is read from it. I, II: the chains in the order shown. Actinocin(9to1) = Cc1c2oc3c(C)ccc(C(=O)[*:1])c3nc-2c(C(=O)[*:2])c(N)c1=O; NMeV = CN[C@H](C(=O)O)C(C)C; Sar = CNCC(=O)O

B1: recombinant human TRAIL: TNF-related apoptosis inducing ligand, a known cell death inducer in Jurkat cells (protein, UniProt P50591 1-281, looked up)
Tumor necrosis factor ligand …: MAMMEVQGGPSLGQTCVLIVIFTVLLQSLCVAVTYVYFTNELKQMQDKYSKSGIACFLKEDDSYWDPNDEESMNSPCWQVKWQLRQLVRKMILRTSEETISTVQEKQQNISPLVRERGPQRVAAHITGTRGRSNTLSSPNSKNEKALGRKINSWESSRSGHSFLSNLHLRNGELVIHEKGFYYIYSQTYFRFQEEIKENTKNDKQMVQYIYKYTSYPDPILLMKSARNSCWSKDAEYGLYSIYQGGIFELKENDRIFVSVTNEHLIDMDHEASFFGAFLVG

Tests used:
A20GFP = assay: ActD/CHX interference with the GFP apoptosis assay in A20GFP; format: cell-based, murine; details: for inhibition of sFasL SN induced apoptosis: 5 μg/ml ActD and/or 10 μg/ml CHX with 100 μl sFasL SN, 10 hours; for fluorescence intensity / fluorescing capacity of A20GFP: 5 μg/ml ActD and/or 10 μg/ml CHX, 10 hours at 37° C.
Experimental: To find out whether the fluorescence of A20GFP and the GFP apoptosis assay as described in example 7 is dependent on the de novo transcription and protein synthesis, Act D (pharmacy of the University Hospital, Basel), a RNA synthesis inhibitor, and Cycloheximide (Sigma), a protein synthesis inhibitor, were tested in our experimental protocol. After washing A20GFP cells with PBS, 250000 cells were aliquoted in FACS-tubes and incubated with:
a) Tube 1 (control): 500 μl medium complete (MC)
b) Tube 2: 100 μl sFasL SN and 400 μl MC
c) Tube 3: 500 μl MC and 5 μg/ml ActD
d) Tube 4: 400 μl MC, 100 μl sFasL SN, 5 μg/ml ActD
e) Tube 5: 500 μl MC and 10 μg/ml CHX
f) Tube 6: 400 μl MC, 100 μl sFasL SN and 10 μg/ml CHX
g) Tube 7: 500 μl MC, 5 μg/ml Act D and 10 μg/ml CHX
h) Tube 8: 400 μl MC, 100 μl sFasL SN, 5 μg/ml Act D and 10 μg/ml CHX
Tubes 1-8 (a-h) were incubated for 10 hours at 37° C. The fluorescing status of the cells was assayed at 10 hours post treatment.

JurkatGFP = assay: Apoptosis assay: induction of apoptosis in JurkatGFP by recombinant human TRAIL; format: cell-based
Experimental: This apoptosis assay has been performed with recombinant human TRAIL, a known cell death inducer in Jurkat cells. 250,000 JurkatGFP cells were aliquoted in two different FACS-tubes.
Tube 1: (control): cells were incubated with 500 μl RPMI medium,
Tube 2: cells were incubated with 25 μl recombinant human TRAIL and 475 μl RPMI medium.
Both tubes were incubated for 18 hours at 37° C. After incubation the test tubes were immediately measured without prior washing.

Molecule	inhibition of sFasL SN induced apoptosis (A20GFP)	fluorescence intensity / fluorescing capacity of A20GFP (A20GFP)	induction of apoptosis in JurkatGFP (JurkatGFP; 25 μl recombinant human TRAIL in 500 μl, 18 hours at 37° C.)	dose dependence of apoptosis induction in JurkatGFP (JurkatGFP; data not shown)
Cc1c2oc3c(C)ccc(C(=O)N[C@@H]4C(=O)N[C@H](C(C)C)C(=O)N5CCC[C@H]5C(=O)N(C)CC(=O)N(C)[C@@H](C(C)C)C(=O)O[C@@H]4C)c3nc-2c(C(=O)N[C@@H]2C(=O)N[C@H](C(C)C)C(=O)N3CCC[C@H]3C(=O)N(C)CC(=O)N(C)[C@@H](C(C)C)C(=O)O[C@@H]2C)c(N)c1=O [ActD, Actinomycin D] (I: T[dV]P[Sar][NMeV] / II: T[dV]P[Sar][NMeV]; ester I:1-I:C, II:1-II:C; linker I:N-II:N via Actinocin(9to1))	nor do they inhibit sFasL SN induced apoptosis	do not substantially interfere with the fluorescing capacity of A20GFP; also recorded: Neither a reduction of GFP-associated fluorescence	–	–
C[C@@H]1C[C@@H]([C@H](O)CC2CC(=O)NC(=O)C2)C(=O)[C@@H](C)C1 [CHX, Cycloheximide]	nor do they inhibit sFasL SN induced apoptosis	do not substantially interfere with the fluorescing capacity of A20GFP; also recorded: Neither a reduction of GFP-associated fluorescence	–	–
B1	–	–	induced apoptosis in JurkatGFP cells	dose dependent manner
